Assay results published in patent US10870635B2, “Compounds and their use as BACE1 inhibitors” (ALLGENESIS BIOTHERAPEUTICS, INC., priority 2015, dated 2020).

Experiments:
[1] = biological target: Human recombinant cathepsin D (Homo sapiens (Human), UniProt P07339); test: Cathepsin D activity assay; assay type: biochemical; details: read-out: CatD IC50
Description: The development of a CatD activity assay is used to determine any potential cross reactivity for compounds selected from the β-secretase activity assay and to determine the selectivity to BACE1 inhibition. The CatD activity is reported for assessing target selectivity ratio (CatD IC50/BACE1 IC50).
The reagents for the cathepsin D assay were prepared as follows.
Human recombinant cathepsin D stored frozen in 2.0 μl aliquots was thawed and 42 μl of enzyme buffer (0.1M NaOAC, 0.2 M NaCl, pH 3.5) was added and incubated at 37° C. for 30 minutes. After 30 minutes the enzyme was further diluted to a final volume of 4.4 ml in enzyme buffer containing 5.0 mM DTT for immediate use in the cathepsin D assay.
The 7-methoxycoumarin-labeled peptide substrate (ES010) for cathepsin D was supplied as a 6.2 mM stock in DMSO. For use in the cathepsin D assay, the 6.2 mM stock was diluted to a 1.55 mM stock with DMSO. The 1.55 mM peptide stock in DMSO was further diluted 1:100 in reaction buffer (0.1M NaOAC, 0.2M NaCl, 0.1% Tween 20, 5.0 mM DTT, pH3.5) to create a 15.5 μM stock for use in the assay.
DMSO without compound served as a DMSO vehicle control for the cathepsin D assay. For each test compound, 30 μl of each dilution was pipetted into a separate well of a 96-well polypropylene plate. This polypropylene plate was labeled as the DMSO dilution plate and a plate map of test compound locations was made.
Test compounds from the DMSO dilution plate require a 1:100 dilution into reaction buffer before they can be added to the cathepsin D assay plate. To accomplish the 1:100 dilution of test compounds, 2.0 μl of each test compound at each concentration was pipetted from the DMSO dilution plate (using a multi-channel pipette calibrated to accurately dispense a 2.0 μl volume) into a new 96-well polypropylene plate using the plate map created for the DMSO dilution plate. This 96-well plate served as the inhibitor dilution plate. Next, 198 μl of reaction buffer was pipetted into each well of the inhibitor dilution plate (using a multi-channel pipette calibrated for accurate delivery of a 198 μl volume) and the pipetted test compound mixed by gentle up and down pipetting.
A1.0 mM stock of pepstatin A was made in DMSO and aliquotted into 5.0 μl samples for freezing and storage at −20° C. Upon thawing, 45 μl of DMSO (1:10 dilution) was added to create a 100 μM stock of pepstatin A in DMSO. The 100 μM Pepstatin A stock was further diluted 1:10 with DMSO to create a 10 μM stock in DMSO. […]
The assay plate was placed into a fluorescent plate reader with the excitation wavelength set at 320 nm and the emission wavelength set at 405 nm. Readings were collected every minute over a 30 minute collection period.

[2] = biological target: BACE1 (recombinant β-secretase enzyme) (Homo sapiens (Human), UniProt P56817); test: AnaSpec BACE1 fluorescent assay (beta-secretase activity assay); assay type: biochemical
BACE1 (recombinant β-secretase enzyme), sequence (P56817 46-501): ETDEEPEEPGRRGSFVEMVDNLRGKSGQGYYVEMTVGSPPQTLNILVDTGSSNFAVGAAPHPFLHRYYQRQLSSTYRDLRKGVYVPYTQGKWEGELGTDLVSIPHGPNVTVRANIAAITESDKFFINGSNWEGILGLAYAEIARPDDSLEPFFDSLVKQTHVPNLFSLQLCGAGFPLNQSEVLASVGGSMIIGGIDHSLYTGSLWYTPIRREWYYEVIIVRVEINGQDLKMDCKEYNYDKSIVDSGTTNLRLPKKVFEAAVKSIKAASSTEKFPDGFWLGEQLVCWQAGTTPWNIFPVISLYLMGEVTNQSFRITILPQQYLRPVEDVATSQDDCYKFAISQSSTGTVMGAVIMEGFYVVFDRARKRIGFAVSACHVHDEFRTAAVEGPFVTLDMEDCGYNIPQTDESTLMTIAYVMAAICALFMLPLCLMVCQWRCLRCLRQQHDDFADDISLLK
Description: A BACE1 activity assay kit from AnaSpec (Fremont, Calif.) was used to determine the potency of the selected BACE1 inhibitors by AnaSpec BACE1 fluorescent assay. The recombinant β-secretase enzyme was diluted 1:200 in 1× assay buffer (1 part of 1× assay buffer and 1 part of TBS containing 0.1% Tween 20). The enzyme was added in a volume of 40 μl to each well of a black 96-well micro plate.
The BACE1 inhibitors were serially diluted into DMSO from their 10 mM stock concentrations in DMSO. The serially diluted inhibitors were diluted 1:100 into 1× assay buffer in a 96-well polypropylene plate (assay dilution plate). The final concentration of the BACE1 inhibitor tested was 300 nM, 100 nM, 30 nM, 10 nM, 3 nM, 1 nM 0.3 nM, and 0.00 nM. Dose responses for inhibitors were run in duplicate.
A volume of 10 μl of the inhibitor from the assay dilution plate, a control inhibitor LY2886721 or inhibitor vehicle was then added to each well of the black 96-well micro plate containing BACE1.
(§1) To each well of the black 96-well micro plate, 50 μl of the β-secretase substrate (Hylite Fluor 488) diluted 1:100 using assay buffer was added. The reagents were mixed gently and the assay plate was placed into a POLARstar fluorescent plate reader with excitation wavelength set at 485 nm and the emission wavelength set at 520 nm. The plate reader was set to take readings every 5 minutes for up to 30 minutes or a 30 minute endpoint reading was used.
An appropriate integrated first-order rate equation was used to fit the data accumulated over a 30-40 minute collection period.

recombinant BACE2 = recombinant BACE2 (Homo sapiens (Human), UniProt Q9Y5Z0); test: AnaSpec BACE2 fluorescent assay; assay type: biochemical
recombinant BACE2, sequence (Q9Y5Z0 63-518): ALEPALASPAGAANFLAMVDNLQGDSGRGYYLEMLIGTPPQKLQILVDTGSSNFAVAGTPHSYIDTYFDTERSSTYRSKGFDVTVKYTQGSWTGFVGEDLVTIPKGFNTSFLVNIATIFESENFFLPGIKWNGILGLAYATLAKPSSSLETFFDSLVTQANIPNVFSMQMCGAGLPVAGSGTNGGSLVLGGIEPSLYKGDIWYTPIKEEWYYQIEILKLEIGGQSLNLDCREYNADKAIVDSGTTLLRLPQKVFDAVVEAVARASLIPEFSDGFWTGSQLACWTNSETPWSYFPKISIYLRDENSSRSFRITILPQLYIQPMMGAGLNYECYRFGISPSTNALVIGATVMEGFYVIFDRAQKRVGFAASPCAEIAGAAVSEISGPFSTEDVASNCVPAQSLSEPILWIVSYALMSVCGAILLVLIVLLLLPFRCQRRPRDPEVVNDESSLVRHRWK
Description: A BACE2 activity assay kit from AnaSpec (Fremont, Calif.) was used to determine the potency of the selected compounds by AnaSpec BACE2 fluorescent assay. To each well of a black 96-well micro plate, 50 μl of the β-secretase substrate (Hylite Fluor 488) diluted 1:100 using assay buffer was first added.
The compounds were serially diluted (1:2) into DMSO from their 10 mM stock concentrations in DMSO. The serially diluted inhibitors were diluted 1:100 into 1× assay buffer in a 96-well polypropylene plate (assay dilution plate). The final concentration of these compounds tested was 300 nM, 150 nM, 75 nM, 37.5 nM, 18.75 nM, 9.375 nM, 4.688 nM, 2.344 nM, 1.172 nM, 0.586 nM, and 0.293 nM.
A volume of 10 μl of the inhibitor from the assay dilution plate, a control inhibitor LY2886721 or inhibitor vehicle was then added to each well of the black 96-well micro plate.
The recombinant BACE2 was diluted in an assay buffer and the final BACE2 was 10.6 nM. The enzyme was added in a volume of 40 μl to each well of a black 96-well micro plate.
as §1, with “The” for “To each well of the black 96-well micro plate, 50 μl of the β-secretase substrate (Hylite Fluor 488) diluted 1:100 using assay buffer was added. The”
An appropriate integrated first-order rate equation was used to fit the data accumulated over a 30-40 minute collection period. Dose responses for inhibitors were run in duplicate.

[3] = animal toxicology study; cited from earlier work
[4] = in humans; cited from earlier work
[5] = tested on: CSF Aβ40, Aβ42 and soluble APPβ; details: AD patients, reported by Merck; cited from earlier work

Human recombinant cathepsin D, sequence (P07339 65-412): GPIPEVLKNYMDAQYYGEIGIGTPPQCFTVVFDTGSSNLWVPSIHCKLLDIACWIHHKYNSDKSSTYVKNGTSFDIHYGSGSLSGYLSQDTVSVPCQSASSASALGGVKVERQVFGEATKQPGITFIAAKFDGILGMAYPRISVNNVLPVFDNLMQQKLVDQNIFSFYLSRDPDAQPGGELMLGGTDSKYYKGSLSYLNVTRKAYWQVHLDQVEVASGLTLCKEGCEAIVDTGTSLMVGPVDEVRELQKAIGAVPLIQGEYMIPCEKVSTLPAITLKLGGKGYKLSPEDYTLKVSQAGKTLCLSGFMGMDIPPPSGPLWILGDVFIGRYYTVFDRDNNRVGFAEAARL

| IC50 [1] [nM] | IC50 [2] [nM] | IC50 (recombinant BACE2) [nM] | SMILES | other results |
| --- | --- | --- | --- | --- |
| 12300 | 26 |  | CC#Cc1ccc2sc3ccc([C@]4(C)CC(=O)N(C)C(=N)N4)cc3c2c1 [Example 1, (S)-2-Imino-3,6-dimethyl-6-(8-(prop-1-yn-1-yl)dibenzo[b,d]thiophen-2-yl)tetrahydropyrimidin-4(1H)-one] |  |
|  | 44 | 24 | CC#Cc1ccc2[nH]c([C@]3(C)CC(=O)N(C)C(=N)N3)c(Cl)c2c1 [Example 38, (S)-6-(3-Chloro-5-(prop-1-yn-1-yl)-1H-indol-2-yl)-2-imino-3,6-dimethyl-tetrahydropyrimidin-4(1H)-one] |  |
| 3900 | 44 | 23.8 ± 1.52 | CC#Cc1ccc2sc3cc(Cl)c([C@]4(C)CC(=O)N(C)C(N)=N4)cc3c2c1 [Example 71, (S)-2-Amino-6-(3-chloro-8-(prop-1-yn-1-yl)dibenzo[b,d]thiophen-2-yl)-3,6-dimethyl-5,6-dihydropyrimidin-4(3H)-one] |  |
|  |  |  | C[C@@]1(c2cc(-c3cncnc3)c(F)cc2F)CCSC(N)=N1 [LY-2811376] | toxicity finding leading to discontinuation [3]: retinal toxicity |
|  |  |  | NC1=N[C@@]2(c3cc(NC(=O)c4ccc(F)cn4)ccc3F)COC[C@H]2CS1 [LY-2886721] | toxicity finding leading to termination [4]: liver toxicity |
|  |  |  | CN1C(=N)N[C@](C)(c2cc(NC(=O)c3ccc(F)cn3)ccc2F)CS1(=O)=O [MK-8931] | effect on CSF Aβ40, Aβ42 and soluble APPβ [5]: reduce CSF Aβ40, Aβ42 and soluble APPβ |
